# US5952368A, “5-aroylpyrrol-2-ylmethylarene derivatives” (Syntex (U.S.A.) Inc., priority 1997, dated 1999)
# Assays:
# air pouch PGE2 formation = test: Inhibition of eicosanoid (PGE2) synthesis in vivo: carrageenan air-pouch model in rats; set-up: species or system rat; details: oral, male rats
# Procedure: In this assay, an air-pouch is created in the rat and the PGE2 levels in the air-pouch exudate are measured by enzyme immunoassay. Briefly, male rats were anesthetized using a 60:40 CO2 :O2 mixture and subsequently injected subcutaneously with 20 ml of sterilized air, under aseptic conditions, in the proximal area of the dorsum. This injection of sterile air causes the creation of a subcutaneous "air pouch". The next day, a further 10 ml of sterile air was injected into the previously formed pouch using the same technique. […] Control rats received vehicle alone. After 30 minutes, 5 ml of a 0.5% solution of carrageenan (Sigma, Lambda Type IV) was injected into the air pouch. The rats were euthanized 3 or 6 h after the compound administration. […] The total exudate volume was recorded, and the samples were analyzed for PGE2 and 6-keto PGF1 by ELISA (Titerzyme®, PerSeptive Diagnostics) and TxB2 by radioimmuno assay (New England Nuclear Research, Catalog No. NEK-037), according to the manufacturer's directions.
# The mean concentrations of PGE2 were calculated for each group. The anti-inflammatory activity of test materials is expressed as the percent inhibition of PGE2 formation in the test group relative to the control group.
# [1] = test system: cognitive decline of Alzheimer's patients; details: cited from earlier work
# COX I = target: T1, COX I (Homo sapiens, UniProt P23219); test: Inhibition of COX I in vitro (radiometric assay, 14C arachidonic acid, partially purified enzyme); type: biochemical; details: partially purified COX I, 20 micromolar arachidonic acid, 10 min preincubation, room temperature; read-out: COX I IC50
# T1 construct: made in house; baculovirus-infected insect cells by own knowledge of the cited Barnett et al. 1994
# T1 sequence (P23219 24-599): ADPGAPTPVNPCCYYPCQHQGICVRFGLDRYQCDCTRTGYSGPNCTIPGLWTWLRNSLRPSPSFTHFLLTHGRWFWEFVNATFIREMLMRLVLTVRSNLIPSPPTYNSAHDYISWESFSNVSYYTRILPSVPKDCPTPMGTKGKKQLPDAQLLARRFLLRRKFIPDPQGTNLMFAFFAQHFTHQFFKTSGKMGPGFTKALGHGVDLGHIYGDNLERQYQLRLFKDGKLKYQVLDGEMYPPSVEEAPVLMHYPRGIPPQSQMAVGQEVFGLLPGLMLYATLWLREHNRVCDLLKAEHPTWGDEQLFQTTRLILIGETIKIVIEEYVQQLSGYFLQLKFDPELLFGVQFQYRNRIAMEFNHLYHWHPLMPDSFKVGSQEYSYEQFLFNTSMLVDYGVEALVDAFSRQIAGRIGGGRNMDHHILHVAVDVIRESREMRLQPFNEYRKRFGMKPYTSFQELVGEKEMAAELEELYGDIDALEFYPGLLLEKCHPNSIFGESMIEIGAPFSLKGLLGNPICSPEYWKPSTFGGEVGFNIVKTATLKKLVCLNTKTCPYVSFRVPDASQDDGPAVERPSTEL
# Procedure: (§1) The COX I and COX II inhibitory activity of compounds of this invention in vitro was determined using partially purified COX I and COX II enzymes, prepared as described in J. Barnett et al., Biochim. Biophys. Acta, 1209:130--139 (1994).
# (§2) COX I and COX II samples were diluted with Tris-HCl buffer (50 mM Tris-HCl pH 7.9) containing 2 mM EDTA and 10% glycerol and reconstituted by incubating first with 2 mM phenol for 5 minutes and then with 1 micromolar hematin for an additional 5 minutes. 125 μl of the reconstituted COX I or COX II enzyme were preincubated for 10 minutes at room temperature in a shaking water bath with the compounds of the invention dissolved in 2-15 μl of DMSO or the carrier vehicles (control samples). The enzyme reaction was initiated by adding 25 μl of 1-[14C] arachidonic acid (80,000-100,000 cpm/tube; 20 micromolar final concentration) and the reaction was allowed to continue for an additional 45 seconds. The reaction was terminated by adding 100 μl of 2N HCl and 750 μl water. An aliquot (950 μl) of the reaction mixture was loaded onto a 1 ml C18 Sep-Pak column (J. T. Baker, Phillipsburg, N.J.) which had been previously washed with 2-3 ml methanol and equilibrated with 5-6 ml distilled water. Oxygenated products were quantitatively eluted with 3 ml of acetonitrile/water/acetic acid (50:50:0.1, v/v) and the radioactivity in the eluate determined in a scintillation counter.
# COX II = target: T2, COX II (Homo sapiens, UniProt P35354); test: Inhibition of COX II in vitro (radiometric assay, 14C arachidonic acid, partially purified enzyme); type: biochemical; details: partially purified COX II, 20 micromolar arachidonic acid, 10 min preincubation, room temperature; read-out: COX II IC50
# T2 construct: made in house; baculovirus-infected insect cells by own knowledge of the cited Barnett et al. 1994
# T2 sequence (P35354 18-604): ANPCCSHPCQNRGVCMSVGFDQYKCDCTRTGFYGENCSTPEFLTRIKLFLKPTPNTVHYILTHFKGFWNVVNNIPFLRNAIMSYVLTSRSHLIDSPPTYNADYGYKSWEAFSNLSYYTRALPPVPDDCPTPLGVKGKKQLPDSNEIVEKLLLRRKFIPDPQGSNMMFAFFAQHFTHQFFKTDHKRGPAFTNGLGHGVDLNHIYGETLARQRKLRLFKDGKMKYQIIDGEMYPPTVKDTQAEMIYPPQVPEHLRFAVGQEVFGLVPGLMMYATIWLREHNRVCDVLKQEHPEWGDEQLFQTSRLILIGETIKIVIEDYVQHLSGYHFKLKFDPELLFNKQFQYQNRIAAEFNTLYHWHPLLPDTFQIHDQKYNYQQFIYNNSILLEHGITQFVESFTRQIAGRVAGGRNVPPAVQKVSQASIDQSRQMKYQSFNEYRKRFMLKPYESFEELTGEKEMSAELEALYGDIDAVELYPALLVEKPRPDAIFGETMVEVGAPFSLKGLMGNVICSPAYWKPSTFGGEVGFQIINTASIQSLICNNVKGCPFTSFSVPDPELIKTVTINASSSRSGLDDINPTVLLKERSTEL
# Procedure: as §1, §2
# [2] = test system: carrageenan-induced paw edema; test: Anti-inflammatory activity: inhibition of carrageenan-induced paw edema in the rat; type: in vivo; details: 10 mg/Kg, oral, female rats, 3 h after carrageenan
# Procedure: The anti-inflammatory activity of compounds of this invention was determined by measuring the inhibition of carrageenan-induced paw edema in the rat, using a modification of the method described in Winter C. A. et al. (1962) "Carrageenan-Induced Edema in Hind Paw of the Rat as an Assay for Anti-inflammatory Drugs". Proc. Soc. Exp. Biol. Med. 111: 544-547. This assay has been used as a primary in vivo screen for anti-inflammatoryactivity of most NSAIDs, and is considered predictive of human efficacy. Briefly, test materials were administered orally to female rats in a volume of 1 ml prepared as solutions or suspensions in an aqueous vehicle containing 0.9% NaCl, 0.5% sodium carboxymethyl-cellulose, 0.4% polysorbate 80, 0.9% benzyl alcohol and 97.3% distilled water. Control rats received vehicle alone. After 1 h 0.05 ml of a 0.5% solution of Carrageenan (Type IV Lambda, Sigma Chemical Co.) in 0.9% saline was injected into the subplantar region of the right hind paw. Three hours later the rats were euthanized in a carbon dioxide atmosphere; hind paws were removed by severing at the tatso-crural joint; and the left and right paws were weighed. The increase in weight of the right paw over the left paw was obtained for each animal and the mean increases were calculated for each group. The anti-inflammatory activity of the test materials is expressed as the percent inhibition of the increase in hind paw weight of the test group relative to the vehicle-dosed control group.
# [3] = test system: acetic acid-induced writhing; test: Analgesic activity: Acetic Acid-induced Rat Writhing Assay; type: in vivo; details: 10 mg/Kg, oral, male Sprague Dawley rats
# Excerpt: The analgesic activity of compounds of this invention may be determined by the Acetic Acid-induced Rat Writhing Assay, using a modification of the method described in Berkenkopf, J. W. and Weichman, B. M. "Production of Prostacyclin in Mice following Intraperitoneal Injection of Acetic Acid, Phenylbenzoquinone and Zymosan: Its Role in the Writhing Response" Prostaglandins: 36: 693-70 (1988). This assay is one of several acute assays which have been used to assess the analgesic activity of NSAIDs, and is considered predictive of human efficacy. The test materials were administered orally to male Sprague Dawley rats in a volume of 1 ml/100 g body weight as solutions or suspensions in an aqueous vehicle containing 0.9% NaCl 0.5% sodium carboxymethyl-cellulose, 0.4% polysorbate 80, 0.9% benzyl alcohol and 97.3% water. Control rats received vehicle alone. One hour after compound administration, 0.3 ml/100 g body weight of 0.75% solution of acetic acid was injected intraperitoneally. The acetic acid injection induces a series of characteristic writhing responses, which were counted over the period between 15 and 30 minutes after the injection. The analgesic activity of test materials is expressed as the percentage inhibition of writhing in the test group relative to the control group.
IC50 (COX I),IC50 (COX II),SMILES,"% Inhibition of air pouch PGE2 formation (air pouch PGE2 formation; 2-5 mg/Kg, time not given)",effect on cognitive decline of Alzheimer's patients (in words) [1],% Inhibition (of the increase in hind paw weight) [2],"% Inhibition of air pouch PGE2 formation (air pouch PGE2 formation; 10 mg/Kg, 3 hr)",% Inhibition of writhing responses [3],"% Inhibition of air pouch PGE2 formation (air pouch PGE2 formation; 30 mg/Kg, 3 hr)","% Inhibition of air pouch PGE2 formation (air pouch PGE2 formation; 30 mg/Kg, 6 hr)"
–,–,"COc1ccc2c(c1)c(CC(=O)O)c(C)n2C(=O)c1ccc(Cl)cc1 [Indomethacin, indomethacin, reference compound]",> 70%,inhibit the cognitive decline of Alzheimer's patients,–,–,–,–,–
760 nM,80 nM,"Cc1cc(Cc2ccc(NS(C)(=O)=O)cc2C#N)n(C)c1C(=O)c1ccc(Cl)cc1 [compound 19, N-{3-Cyano-4-[5-(4-chlorobenzoyl)-1,4-dimethyl-1H-pyrrol-2-ylmethyl]phenyl}-methanesulfonamide]",–,–,36%,74%,–,–,–
10000 nM,50 nM,"Cc1ccc(C(=O)c2ccc(Cc3ccc(NS(=O)(=O)CCO)cc3F)n2C)cc1 [compound 36, N-{3-Fluoro-4-[5-(4-methylbenzoyl)-1-methyl-1H-pyrrol-2-ylmethyl]phenyl}-2-(hydroxy)ethanesulfonamide]",–,–,31%,96%,16%,–,–
61000 nM,80 nM,"Cc1ccc(C(=O)c2ccc(Cc3ccc(NS(=O)(=O)CCO)cc3F)n2C)c(C)c1 [compound 48, N-{3-Fluoro-4-[5-(2,4-dimethylbenzoyl)-1-methyl-1H-pyrrol-2-ylmethyl]phenyl}-2-(hydroxy)ethanesulfonamide]",–,–,35%,–,–,64%,–
< 100 nM,230 nM,"COc1ccc(C(=O)c2c(C)cc(Cc3ccc(NS(=O)(=O)CCO)cc3F)n2C)cc1 [compound 98, N-{3-Fluoro-4-[5-(4-methoxybenzoyl)-1,4-dimethyl-1H-pyrrol-2-ylmethyl]phenyl}-2-(hydroxy)ethanesulfonamide]",–,–,42%,98%,71%,–,–
5400 nM,120 nM,"Cc1cc(Cc2ccc(NS(=O)(=O)N(C)C)cc2)n(C)c1C(=O)c1ccc(Cl)cc1 [compound 140, 1-{4-[5-(4-Chlorobenzoyl)-1,4-dimethyl-1H-pyrrol-2-ylmethyl]phenyl}-3,3-di-methylsulfamide]",–,–,27%,–,4%,–,83%
2900 nM,60 nM,"Cc1cc(Cc2ccc(NS(N)(=O)=O)cc2F)n(C)c1C(=O)c1ccc(Cl)cc1 [compound 146, 1-{3-Fluoro-4-[5-(4-chlorobenzoyl)-1,4-dimethyl-1H-pyrrol-2-ylmethyl]phenyl}sulfamide]",–,–,40%,93%,–,–,–
16800 nM,95 nM,"Cc1ccc(C(=O)c2ccc(Cc3ccc(NS(N)(=O)=O)cc3F)n2C)c(C)c1 [compound 165, 1-{3-Fluoro-4-[5-(2,4-dimethylbenzoyl)-1-methyl-1H-pyrrol-2-ylmethyl]phenyl}sulfamide]",–,–,17%,52%,–,–,–
49000 nM,450 nM,"Cc1cc(Cc2ccc(NS(C)(=O)=O)cn2)n(C)c1C(=O)c1ccc(Cl)cc1 [compound 263, N-{2-[5-(4-Chlorobenzoyl)-1,4-dimethyl-1H-pyrrol-2-ylmethyl]pyridin-5-yl}-methanesulfonamide]",–,–,40%,–,31%,–,80%
89000 nM,430 nM,"Cc1ccc(C(=O)c2ccc(Cc3ccc(NS(C)(=O)=O)cn3)n2C)cc1 [compound 271, N-{2-[5-(4-Methylbenzoyl)-1-methyl-1H-pyrrol-2-ylmethyl]pyridin-5-yl}methane-sulfonamide]",–,–,–,56%,–,–,–
22000 nM,500 nM,"COc1ccc(C(=O)c2c(C)cc(Cc3ncc(NS(C)(=O)=O)cc3Cl)n2C)cc1 [compound 284, N-{3-Chloro-2-[5-(4-methoxybenzoyl)-1,4-dimethyl-1H-pyrrol-2-ylmethyl]pyridin-5-yl}-methanesulfonamide]",–,–,–,65%,–,–,–
235000 nM,550 nM,"COc1ccc(C(=O)c2ccc(Cc3ccc(NS(C)(=O)=O)cn3)n2C)cc1 [compound 288, N-{2-[5-(4-Methoxybenzoyl)-1-methyl-1H-pyrrol-2-ylmethyl]pyridin-5-yl}-methanesulfonamide]",–,–,20%,53%,–,–,–
18300 nM,640 nM,"CSc1ccc(C(=O)c2c(C)cc(Cc3ccc(N)cn3)n2C)cc1 [compound 334, {2-[5-(4-Methylthiobenzoyl)-1,4-dimethyl-1H-pyrrol-2-ylmethyl]pyridin-5-yl}amine]",–,–,–,44%,–,–,–
6600 nM,540 nM,"Cc1cc(Cc2ccc(O)cc2)n(C)c1C(=O)c1ccc(Cl)cc1 [compound 343, 4-{5-(4-Chlorobenzoyl)-1,4-dimethyl-1H-pyrrol-2-ylmethyl}phenol]",–,–,35%,–,–,–,–
